Target: T1, DoPAES (Dendrobium catenatum, UniProt A0A975TQG2)
T1 sequence (A0A975TQG2 1-550): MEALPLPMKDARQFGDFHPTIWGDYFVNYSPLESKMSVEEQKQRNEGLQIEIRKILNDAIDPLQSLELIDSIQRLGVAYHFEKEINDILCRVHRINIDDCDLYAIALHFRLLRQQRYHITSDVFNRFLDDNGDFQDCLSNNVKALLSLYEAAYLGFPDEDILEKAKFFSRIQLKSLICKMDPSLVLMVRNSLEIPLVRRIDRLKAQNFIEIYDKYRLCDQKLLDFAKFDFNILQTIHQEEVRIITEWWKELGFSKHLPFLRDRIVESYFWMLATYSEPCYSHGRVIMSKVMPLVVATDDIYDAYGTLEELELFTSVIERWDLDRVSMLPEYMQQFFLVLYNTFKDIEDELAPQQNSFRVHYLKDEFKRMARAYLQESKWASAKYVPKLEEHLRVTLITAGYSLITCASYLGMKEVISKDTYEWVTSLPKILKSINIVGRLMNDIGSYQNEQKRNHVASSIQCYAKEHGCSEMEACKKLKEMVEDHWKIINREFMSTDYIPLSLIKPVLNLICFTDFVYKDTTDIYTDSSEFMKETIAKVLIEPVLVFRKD
Test: HS-SPME-GC-MS of products formed by crude recombinant protein
Assay type: biochemical
Details: 50 mmol/L Tris pH 7.5, 10 mmol/L MgCl2, 10 μmol/L MnCl2, 30 °C, 30 min

`CC(C)=CCC/C(C)=C/CC/C(C)=C/COP(=O)(O)OP(=O)(O)O` [FPP] was tested. Which “HS-SPME-GC-MS of products formed by crude recombinant protein” value did it give?
Its value is “The products were then detected by GC-MS after adding substrate FPP”.

Source: PMC10800100, “DoAP2/ERF89 activated the terpene synthase gene DoPAES in Dendrobium officinale and participated in the synthesis of β-patchoulene” (PeerJ, 2024)
